Reference: PubChem BioAssay AID328 (DTP/NCI, 2004)
Where “and” joins values, the source holds several entries; their conditions need not be identical. Equal entries are not always repeated. Toxic doses and inconclusive results are not listed. Non-standard residues stand in square brackets, D forms with d. Residues, ends and D or L forms follow the SMILES beside them. ξ: configuration not given here. *: point of attachment. Cbz = O=C(OCc1ccccc1)*; Boc = CC(C)(C)OC(=O)*; ξK = NCCCCC(N)C(=O)O; OBn = c1ccc(CO*)cc1

System: BDF1 mice, P388 leukemia ip, median survival T/C
Assay: NCI In Vivo Anticancer Drug Screen. Data for tumor model P388 Leukemia (intraperitoneal) in B6D2F1 (BDF1) mice
Details: endpoint: median survival time, higher = longer survival
Method in brief: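 In tumour-bearing mice, survival after compound treatment is set against the vehicle group and given as a quotient.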

[1] = dose: 12.5 mg/kg/injection, schedule: Q01DX009 (ip), vehicle: saline
[2] = dose: 12.5 mg/kg/injection, schedule: Q04DX003 (ip), vehicle: saline
[3] = dose: 25.0 mg/kg/injection, schedule: Q04DX003 (ip), vehicle: saline
[4] = dose: 50.0 mg/kg/injection, schedule: Q01DX009 (ip), vehicle: saline with Tween-80
[5] = dose: 100.0 mg/kg/injection, schedule: Q01DX009 (ip), vehicle: saline with Tween-80
[6] = dose: 200.0 mg/kg/injection, schedule: Q01DX009 (ip), vehicle: saline with Tween-80
[7] = dose: 100.0 mg/kg/injection, schedule: Q01DX009 (ip), vehicle: Klucel (hydroxypropylcellulose) (HPC)
[8] = dose: 100.0 mg/kg/injection, schedule: Q04DX003 (ip), vehicle: Klucel (hydroxypropylcellulose) (HPC)
[9] = dose: 200.0 mg/kg/injection, schedule: Q01DX009 (ip), vehicle: Klucel (hydroxypropylcellulose) (HPC)
[10] = dose: 200.0 mg/kg/injection, schedule: Q04DX003 (ip), vehicle: Klucel (hydroxypropylcellulose) (HPC)
[11] = dose: 400.0 mg/kg/injection, schedule: Q01DX009 (ip), vehicle: Klucel (hydroxypropylcellulose) (HPC)
[12] = dose: 400.0 mg/kg/injection, schedule: Q04DX003 (ip), vehicle: Klucel (hydroxypropylcellulose) (HPC)
[13] = dose: 25.0 mg/kg/injection, schedule: Q01DX009 (ip), vehicle: saline with Tween-80
[14] = dose: 100.0 mg/kg/injection, schedule: Q04DX003 (ip), vehicle: saline with Tween-80
[15] = dose: 200.0 mg/kg/injection, schedule: Q04DX003 (ip), vehicle: saline with Tween-80
[16] = dose: 400.0 mg/kg/injection, schedule: Q04DX003 (ip), vehicle: saline with Tween-80
[17] = dose: 50.0 mg/kg/injection, schedule: Q01DX009 (ip), vehicle: Klucel (hydroxypropylcellulose) (HPC)

For `Nc1cc(N)cc([N+](=O)[O-])c1`, the T/C (dose: 6.25 mg/kg/injection, schedule: Q01DX009 (ip), vehicle: saline) was 90 % of control, the T/C (dose: 6.25 mg/kg/injection, schedule: Q04DX003 (ip), vehicle: saline) was 100 % of control and the T/C [1] was 86 % of control. The T/C [2] was 104 % of control and the T/C [3] was 100 % of control.
With `N#Cc1cccc(CC(O)(c2ccccc2)c2cccc3ccccc23)c1` (configuration not stated) the T/C [4] was 103 % of control, the T/C [5] was 97 % of control and the T/C [6] was 99 % of control.
In the case of `FC(F)(F)C(F)(F)c1nc2nc(Cl)c(Cl)nc2[nH]1`, the T/C (dose: 25.0 mg/kg/injection, schedule: Q01DX009 (ip), vehicle: other) is reported as 100 % of control and the T/C (dose: 50.0 mg/kg/injection, schedule: Q01DX009 (ip), vehicle: other) is reported as 114 % of control.
In the case of `O=C(Nc1ccc(Nc2ccncc2)cc1)c1ccc(Nc2ccnc3ccc([N+](=O)[O-])cc23)cc1`, the T/C [7] is reported as 90 % of control, the T/C [8] is reported as 100 % of control and the T/C [9] is reported as 90 % of control. For the same compound, the T/C [10] was 100 % of control, the T/C [11] was 95 % of control and the T/C [12] was 90 % of control.
`CCCCNc1nc(N)nc(Nc2ccc(Br)cc2)c1N=O` was tested, and the T/C [13] was 90 % of control, the T/C [4] was 90 % of control and the T/C (dose: 100.0 mg/kg/injection, schedule: Q01DX001 (ip), vehicle: Klucel (hydroxypropylcellulose) (HPC)) was 100 % of control. The T/C [5] was 90 % of control and 91 % of control, the T/C [8] was 120 % of control and the T/C [14] was 86 % of control. For the same compound, the T/C (dose: 132.0 mg/kg/injection, schedule: Q04DX003 (ip), vehicle: Klucel (hydroxypropylcellulose) (HPC)) was 100 % of control and 109 % of control, the T/C (dose: 200.0 mg/kg/injection, schedule: Q01DX001 (ip), vehicle: Klucel (hydroxypropylcellulose) (HPC)) was 91 % of control and the T/C [10] was 104 % of control. The T/C [15] was 104 % of control, the T/C (dose: 300.0 mg/kg/injection, schedule: Q04DX003 (ip), vehicle: Klucel (hydroxypropylcellulose) (HPC)) was 90 % of control and 113 % of control and the T/C (dose: 400.0 mg/kg/injection, schedule: Q01DX001 (ip), vehicle: Klucel (hydroxypropylcellulose) (HPC)) was 91 % of control. For the same compound, the T/C [16] was 100 % of control.
`CN1C(=O)CN=C(c2ccc[nH]2)c2cc(Cl)ccc21` (tested in a mixture with another compound) was tested, and the T/C [17] was 104 % of control, the T/C [7] was 109 % of control and the T/C [8] was 100 % of control. For the same compound, the T/C [9] was 100 % of control, the T/C [10] was 104 % of control and the T/C [12] was 90 % of control.
With `Cc1cc(N(CCCl)CCCl)ccc1C=Nc1ccccc1-c1ccccc1` the T/C [7] was 120 % of control, the T/C [8] was 112 % of control and the T/C [10] was 116 % of control. The T/C (dose: 266.0 mg/kg/injection, schedule: Q04DX003 (ip), vehicle: Klucel (hydroxypropylcellulose) (HPC)) was 120 % of control, the T/C [11] was 150 % of control and 158 % of control and the T/C [12] was 95 % of control. For the same compound, the T/C (dose: 600.0 mg/kg/injection, schedule: Q01DX009 (ip), vehicle: Klucel (hydroxypropylcellulose) (HPC)) was 200 % of control and the T/C (dose: 600.0 mg/kg/injection, schedule: Q04DX003 (ip), vehicle: Klucel (hydroxypropylcellulose) (HPC)) was 154 % of control.
`Cn1c(-c2ccccc2)c(C(=O)O)c(C(=O)O)c1-c1ccccc1` was tested, and the T/C [17] was 95 % of control, the T/C [7] was 90 % of control and the T/C [9] was 96 % of control.
In the case of `Nc1cc(S(=O)(=O)c2ccc(O)c(N)c2)ccc1O`, the T/C [5] is reported as 104 % of control, the T/C [14] is reported as 100 % of control and the T/C [6] is reported as 108 % of control. For the same compound, the T/C [15] was 95 % of control, the T/C (dose: 400.0 mg/kg/injection, schedule: Q01DX009 (ip), vehicle: saline with Tween-80) was 87 % of control and the T/C [16] was 87 % of control.
In the case of `C[S+](C)CCCNC(=O)c1csc(-c2csc(CCNC(=O)c3ccccc3)n2)n1`, the T/C (dose: 8.0 mg/kg/injection, schedule: Q01DX009 (ip), vehicle: saline) is reported as 90 % of control, the T/C (dose: 16.0 mg/kg/injection, schedule: Q01DX009 (ip), vehicle: saline) is reported as 100 % of control and the T/C (dose: 32.0 mg/kg/injection, schedule: Q01DX009 (ip), vehicle: saline) is reported as 95 % of control.
For `Cn1c(=O)c(-c2ccccc2)[n+]([O-])c2ccccc21`, the T/C [13] was 98 % of control, the T/C [4] was 107 % of control and the T/C [5] was 100 % of control. For the same compound, the T/C [6] was 113 % of control.
For `N=C1CCCC1C(=S)SC(CC(N)=O)C(=O)O` (configuration not stated), the T/C [4] was 108 % of control, the T/C [5] was 112 % of control and the T/C [6] was 112 % of control.
For `CC(C)(C)C#C[P+](C#CC(C)(C)C)(Cc1ccccc1)c1ccccc1`, the T/C [1] was 96 % of control, the T/C [2] was 123 % of control and the T/C [3] was 123 % of control. For the same compound, the T/C (dose: 50.0 mg/kg/injection, schedule: Q04DX003 (ip), vehicle: saline) was 107 % of control.
In the case of `CCOC(=O)c1cc(OC(C)=O)c2c(ccc3ccccc32)c1C`, the T/C [8] is reported as 91 % of control and the T/C [12] is reported as 91 % of control.
With `O=c1[nH]c(-c2ccccc2)c(-c2ccccc2)[nH]1` the T/C (dose: 12.5 mg/kg/injection, schedule: Q01DX009 (ip), vehicle: Klucel (hydroxypropylcellulose) (HPC)) was 95 % of control, the T/C (dose: 25.0 mg/kg/injection, schedule: Q01DX009 (ip), vehicle: Klucel (hydroxypropylcellulose) (HPC)) was 86 % of control and the T/C [17] was 86 % of control.
With `C[N+](C)(C)CC[N+](C)(C)C` the T/C (dose: 100.0 mg/kg/injection, schedule: Q01DX009 (ip), vehicle: saline) was 93 % of control, the T/C (dose: 100.0 mg/kg/injection, schedule: Q04DX003 (ip), vehicle: saline) was 93 % of control and the T/C (dose: 200.0 mg/kg/injection, schedule: Q01DX009 (ip), vehicle: saline) was 101 % of control. The T/C (dose: 200.0 mg/kg/injection, schedule: Q04DX003 (ip), vehicle: saline) was 118 % of control, the T/C (dose: 400.0 mg/kg/injection, schedule: Q01DX009 (ip), vehicle: saline) was 93 % of control and the T/C (dose: 400.0 mg/kg/injection, schedule: Q04DX003 (ip), vehicle: saline) was 107 % of control.
With `CC(C)(C)OC(=O)NCC(=O)NC(CCCCNC(=O)OCc1ccccc1)C(=O)OCc1ccccc1` (stereo not drawn) (Boc-Gly-[ξK](Cbz)-OBn) the T/C (dose: 50.0 mg/kg/injection, schedule: Q01DX005 (ip), vehicle: saline with Tween-80) was 95 % of control, the T/C (dose: 100.0 mg/kg/injection, schedule: Q01DX005 (ip), vehicle: saline with Tween-80) was 90 % of control and the T/C (dose: 200.0 mg/kg/injection, schedule: Q01DX005 (ip), vehicle: saline with Tween-80) was 104 % of control.
For `C/C(Cc1ccccc1)=N\O`, the T/C [5] was 100 % of control and the T/C [6] was 110 % of control.
`NCC(O)COc1ccccc1N` (configuration not stated) was tested, and the T/C (dose: 3.0 mg/kg/injection, schedule: Q01DX009 (ip), vehicle: saline) was 100 % of control, the T/C (dose: 3.0 mg/kg/injection, schedule: Q04DX003 (ip), vehicle: saline) was 108 % of control and 109 % of control and the T/C (dose: 6.0 mg/kg/injection, schedule: Q01DX009 (ip), vehicle: saline) was 100 % of control. The T/C (dose: 6.0 mg/kg/injection, schedule: Q04DX003 (ip), vehicle: saline) was 95 % of control and 109 % of control, the T/C (dose: 12.0 mg/kg/injection, schedule: Q01DX009 (ip), vehicle: saline) was 96 % of control and the T/C (dose: 12.0 mg/kg/injection, schedule: Q04DX003 (ip), vehicle: saline) was 100 % of control and 113 % of control.
With `CC(=O)N/N=C(/C)C(=O)O` the T/C (dose: 12.5 mg/kg/injection, schedule: Q01DX009 (ip), vehicle: water) was 93 % of control and 102 % of control and 114 % of control, the T/C (dose: 12.5 mg/kg/injection, schedule: Q04DX003 (ip), vehicle: water) was 95 % of control and the T/C (dose: 25.0 mg/kg/injection, schedule: Q04DX003 (ip), vehicle: water) was 100 % of control. For the same compound, the T/C (dose: 50.0 mg/kg/injection, schedule: Q04DX003 (ip), vehicle: water) was 100 % of control.
